As a reminder, the IC50 is the concentration that gives 50% inhibition.

Like-named read-outs stand apart in the source and are kept apart here.

The target in data set [1] is T1, porcine megalin (Sus scrofa, UniProt C0HL13). As to the kind of experiment: Surface plasmon resonance: competition for TC:B12 binding to chip-immobilized megalin. The note with it: for IC50: IC50 for TC:B12/megalin interaction (mM; 95%CI), 10 µg/ml TC:B12 in 0 to 100 mM amino-acid, Biacore; for SPR signal of amino-acid alone on megalin chip: chips exposed to increasing concentrations of amino-acid, no analyte. The protocol: (§1) To directly address whether supra-physiological concentrations of dibasic amino-acids (dAAs) can interfere with binding of protein ligands to megalin, we used surface plasmon resonance. Sensor chips were derivatized with porcine megalin at high density. […] After flushing, chips were incubated with 10 µg/ml of three analytes: the megalin chaperone, RAP (receptor-associated protein), as positive control (not shown), or two physiological megalin ligands: transcobalamine:cobalamine complexes (TC:B12; Fig. 1; sensorgrams shown at Supplemental Fig. 1a) or lysozyme (Supplemental Fig. 1b), diluted in 0 to 100 mM of the same amino-acids in buffer. […] The supraphysiological range for effective competition in vitro defined the necessary increment in urinary concentration from dietary supplementation for significant competition in vivo.
T1 sequence (C0HL13 26-4652): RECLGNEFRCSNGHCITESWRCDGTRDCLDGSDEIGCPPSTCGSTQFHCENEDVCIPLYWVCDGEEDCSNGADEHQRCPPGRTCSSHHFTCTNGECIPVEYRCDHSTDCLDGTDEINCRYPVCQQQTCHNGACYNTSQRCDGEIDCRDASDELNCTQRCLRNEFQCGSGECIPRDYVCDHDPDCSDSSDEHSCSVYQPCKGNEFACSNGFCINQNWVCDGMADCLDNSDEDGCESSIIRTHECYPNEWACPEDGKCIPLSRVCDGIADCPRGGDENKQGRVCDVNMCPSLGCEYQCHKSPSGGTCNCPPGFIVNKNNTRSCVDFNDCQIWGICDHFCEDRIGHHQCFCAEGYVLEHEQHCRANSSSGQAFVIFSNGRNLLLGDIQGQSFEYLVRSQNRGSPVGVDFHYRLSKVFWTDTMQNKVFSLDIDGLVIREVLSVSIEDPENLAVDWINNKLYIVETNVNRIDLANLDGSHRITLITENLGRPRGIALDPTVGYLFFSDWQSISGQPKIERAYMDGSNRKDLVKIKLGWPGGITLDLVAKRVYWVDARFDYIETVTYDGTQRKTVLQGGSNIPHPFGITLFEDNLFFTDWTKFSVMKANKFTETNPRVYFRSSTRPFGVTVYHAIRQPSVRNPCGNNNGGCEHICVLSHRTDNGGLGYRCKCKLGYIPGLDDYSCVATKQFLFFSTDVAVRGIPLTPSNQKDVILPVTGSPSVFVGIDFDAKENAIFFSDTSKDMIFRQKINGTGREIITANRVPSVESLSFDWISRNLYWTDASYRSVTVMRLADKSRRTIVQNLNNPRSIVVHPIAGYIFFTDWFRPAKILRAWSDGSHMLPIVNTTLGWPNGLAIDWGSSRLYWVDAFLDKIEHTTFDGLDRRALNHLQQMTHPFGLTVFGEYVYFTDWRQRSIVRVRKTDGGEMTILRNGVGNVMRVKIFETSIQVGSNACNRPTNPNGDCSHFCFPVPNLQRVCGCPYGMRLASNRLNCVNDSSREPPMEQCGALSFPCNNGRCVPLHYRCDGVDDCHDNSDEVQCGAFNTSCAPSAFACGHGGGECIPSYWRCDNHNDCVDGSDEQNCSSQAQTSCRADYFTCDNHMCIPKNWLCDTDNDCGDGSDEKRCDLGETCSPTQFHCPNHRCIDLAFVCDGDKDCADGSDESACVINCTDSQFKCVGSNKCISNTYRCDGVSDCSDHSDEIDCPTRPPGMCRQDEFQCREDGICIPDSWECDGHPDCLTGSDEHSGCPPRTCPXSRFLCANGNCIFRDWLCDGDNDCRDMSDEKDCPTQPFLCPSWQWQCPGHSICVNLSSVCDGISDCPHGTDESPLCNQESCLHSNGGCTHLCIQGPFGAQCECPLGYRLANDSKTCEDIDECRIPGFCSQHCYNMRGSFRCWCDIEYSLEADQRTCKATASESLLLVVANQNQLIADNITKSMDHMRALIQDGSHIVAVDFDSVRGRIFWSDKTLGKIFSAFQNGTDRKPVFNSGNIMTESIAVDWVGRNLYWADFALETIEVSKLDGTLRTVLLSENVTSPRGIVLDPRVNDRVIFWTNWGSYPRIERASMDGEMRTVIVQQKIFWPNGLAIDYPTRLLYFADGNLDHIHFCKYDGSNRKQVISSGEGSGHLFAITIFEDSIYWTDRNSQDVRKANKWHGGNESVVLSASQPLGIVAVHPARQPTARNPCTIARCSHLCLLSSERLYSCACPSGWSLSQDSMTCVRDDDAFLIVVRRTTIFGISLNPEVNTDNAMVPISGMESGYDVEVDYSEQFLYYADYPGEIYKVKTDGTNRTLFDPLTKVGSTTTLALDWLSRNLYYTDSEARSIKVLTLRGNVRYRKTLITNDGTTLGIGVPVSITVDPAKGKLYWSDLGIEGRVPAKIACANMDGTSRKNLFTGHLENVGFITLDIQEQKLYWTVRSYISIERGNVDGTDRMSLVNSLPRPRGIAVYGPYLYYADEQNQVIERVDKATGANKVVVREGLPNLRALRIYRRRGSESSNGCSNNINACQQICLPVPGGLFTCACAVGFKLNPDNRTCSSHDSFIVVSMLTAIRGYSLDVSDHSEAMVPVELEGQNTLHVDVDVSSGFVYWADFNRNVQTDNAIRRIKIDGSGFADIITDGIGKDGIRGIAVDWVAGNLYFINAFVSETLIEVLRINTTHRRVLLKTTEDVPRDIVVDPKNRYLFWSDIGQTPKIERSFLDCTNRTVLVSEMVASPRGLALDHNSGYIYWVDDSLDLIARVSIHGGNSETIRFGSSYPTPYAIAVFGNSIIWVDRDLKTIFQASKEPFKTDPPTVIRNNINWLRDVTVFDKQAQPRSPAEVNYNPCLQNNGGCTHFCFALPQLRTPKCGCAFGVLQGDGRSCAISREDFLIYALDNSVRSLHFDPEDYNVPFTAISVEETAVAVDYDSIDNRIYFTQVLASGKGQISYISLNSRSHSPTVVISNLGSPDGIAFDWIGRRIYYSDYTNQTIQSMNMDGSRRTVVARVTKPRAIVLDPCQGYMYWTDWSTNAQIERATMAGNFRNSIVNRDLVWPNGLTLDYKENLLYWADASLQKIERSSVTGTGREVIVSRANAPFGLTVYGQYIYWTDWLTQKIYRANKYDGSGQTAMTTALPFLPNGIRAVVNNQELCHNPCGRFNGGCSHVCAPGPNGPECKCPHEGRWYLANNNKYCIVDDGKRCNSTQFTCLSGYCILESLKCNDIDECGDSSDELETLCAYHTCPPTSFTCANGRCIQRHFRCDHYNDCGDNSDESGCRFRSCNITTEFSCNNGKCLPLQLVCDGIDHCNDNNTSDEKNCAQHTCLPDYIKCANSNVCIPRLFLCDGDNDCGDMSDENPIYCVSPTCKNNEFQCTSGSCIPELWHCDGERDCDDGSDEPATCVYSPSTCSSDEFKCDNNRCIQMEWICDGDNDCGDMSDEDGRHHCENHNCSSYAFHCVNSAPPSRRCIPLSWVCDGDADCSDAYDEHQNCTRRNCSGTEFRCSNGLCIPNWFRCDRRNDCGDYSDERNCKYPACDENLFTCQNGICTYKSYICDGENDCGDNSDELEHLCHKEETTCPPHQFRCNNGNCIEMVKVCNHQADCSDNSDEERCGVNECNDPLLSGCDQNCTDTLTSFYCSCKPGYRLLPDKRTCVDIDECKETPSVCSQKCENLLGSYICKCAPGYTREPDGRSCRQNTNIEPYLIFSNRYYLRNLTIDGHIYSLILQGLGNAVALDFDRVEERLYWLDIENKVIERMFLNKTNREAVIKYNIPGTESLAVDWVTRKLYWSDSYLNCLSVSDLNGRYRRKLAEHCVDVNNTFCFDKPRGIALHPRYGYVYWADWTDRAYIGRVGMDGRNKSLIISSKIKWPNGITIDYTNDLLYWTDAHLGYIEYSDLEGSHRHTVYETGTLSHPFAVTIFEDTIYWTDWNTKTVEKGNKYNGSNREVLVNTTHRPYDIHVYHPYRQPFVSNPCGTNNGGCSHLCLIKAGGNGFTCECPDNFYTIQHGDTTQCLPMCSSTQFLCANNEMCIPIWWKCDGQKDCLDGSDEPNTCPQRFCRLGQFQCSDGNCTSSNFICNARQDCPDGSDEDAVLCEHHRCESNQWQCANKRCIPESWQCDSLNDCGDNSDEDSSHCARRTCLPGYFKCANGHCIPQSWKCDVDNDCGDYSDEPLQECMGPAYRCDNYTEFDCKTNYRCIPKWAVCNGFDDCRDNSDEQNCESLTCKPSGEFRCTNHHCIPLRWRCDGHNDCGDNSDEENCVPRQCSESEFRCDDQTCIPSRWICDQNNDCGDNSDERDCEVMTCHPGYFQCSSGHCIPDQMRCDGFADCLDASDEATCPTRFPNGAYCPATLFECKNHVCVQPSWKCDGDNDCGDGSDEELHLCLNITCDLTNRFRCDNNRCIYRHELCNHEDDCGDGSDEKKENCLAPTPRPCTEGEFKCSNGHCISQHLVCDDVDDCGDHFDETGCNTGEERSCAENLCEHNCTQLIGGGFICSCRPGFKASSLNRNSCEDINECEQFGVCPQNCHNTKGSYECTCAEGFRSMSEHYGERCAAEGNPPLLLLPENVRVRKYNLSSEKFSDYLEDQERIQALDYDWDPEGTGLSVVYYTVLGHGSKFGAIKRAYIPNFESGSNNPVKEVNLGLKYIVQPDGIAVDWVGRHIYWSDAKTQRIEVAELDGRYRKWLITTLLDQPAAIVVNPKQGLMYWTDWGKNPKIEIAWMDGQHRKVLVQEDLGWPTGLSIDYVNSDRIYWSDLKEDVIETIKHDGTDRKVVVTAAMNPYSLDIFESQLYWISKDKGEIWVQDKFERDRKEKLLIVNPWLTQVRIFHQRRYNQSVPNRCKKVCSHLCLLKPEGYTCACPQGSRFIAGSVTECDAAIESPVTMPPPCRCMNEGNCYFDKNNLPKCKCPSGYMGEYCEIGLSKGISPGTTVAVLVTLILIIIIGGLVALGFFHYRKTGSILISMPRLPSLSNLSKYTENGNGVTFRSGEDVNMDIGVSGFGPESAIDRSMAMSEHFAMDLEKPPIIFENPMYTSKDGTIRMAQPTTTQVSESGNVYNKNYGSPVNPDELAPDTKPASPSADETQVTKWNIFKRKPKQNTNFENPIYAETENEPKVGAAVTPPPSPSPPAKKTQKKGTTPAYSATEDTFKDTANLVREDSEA
Figure 1 Acellular assay: direct competition for transcobalamine:cobalamine binding to megalin immobilized on Biacore sensor chips. Signals of sensorgrams (shown in Supplemental Fig. 1) were normalized to control signal without AA supplementation, taken as the unity, and are means ± SEM of at least four independent technical duplicate values at each of the indicated amino-acid-concentrations.
(§2) Surface plasmon resonance (SPR) analysis of the binding to chip-immobilized megalin of receptor-associated protein (RAP), transcobalamine:cobalamine complex (TC:B12) and lysozyme was carried out using a Biacore T200 instrument (Uppsala, Sweden). The sensor chips (type CM5) were activated with a 1:1 mixture of 0.2 M N-ethyl-N′-(3-dimethylaminopropyl) carbodiimide and 0.05 M N-hydroxysuccinimide in H2O. Porcine megalin[49] was immobilized on the chip in 10 mM sodium acetate, pH 4.0, and the remaining binding sites were blocked with 1 M ethanolamine, pH 8.5. The SPR signal generated from immobilized megalin were obtained with a density of 4.5 fmol protein/mm^2.
(§3) Human RAP was produced as recombinant protein in E. coli[50] and used to validate the sensor chip. TC was purified and complexed with B12 as described (TC/B12)[50],[51]. Human recombinant lysozyme was purchased from Sigma-Aldrich (expressed in rice, # L1667). Sensorgrams were generated using each of these three ligands at 10 µg/ml in a running buffer consisting of 10 mM Hepes, 150 mM NaCl, 4 mM CaCl2 and 0.05% Tween 20, pH 7.4. The flow cells were regenerated with 1 M ethanolamine pH 9.0. Analyte testing was performed as a dual injection starting with running buffer supplemented with the defined concentrations of amino acids followed by injection of analyte in the same solution. The pH of all buffers was adjusted after amino acids addition. All binding experiments were made as at least independent triplicate of technical duplicates and data were analyzed using the Biacore T200 evaluation software version 3.1.

Data set [2] addresses T1, porcine megalin. As to the kind of experiment: Surface plasmon resonance: competition for lysozyme binding to chip-immobilized megalin. The conditions noted are these: 10 µg/ml lysozyme in 0 to 100 mM amino-acid. The method, then: as §1, §2, §3
In general terms: Surface plasmon resonance follows binding to a sensor surface in real time, without labels.

The subject of another data set is megalin. The data set is described as follows: Confocal imaging of megalin localization in kidney proximal tubular cells of WT mice. It counts as in vivo. The conditions noted are these: WT female mice, two weeks diet, kidney cortex.
Data set [3] in a line: Urinary and serum amino-acid concentration by mass spectrometry in Ctns KO mice. In kind it is in vivo. The note with it: for Urinary alanine / Urinary cystine / Urinary glycine: Ctns KO mice at 8 months of age, 24-h urine, mean ± SEM; for increase of cystinuria: vs control diet; for concentration at 2 months: n = 4. The protocol:
Body weight was recorded before entering the metabolic cages. […] Creatinine clearance was normalized by mouse body weight.
Quantitative analysis of underivatized amino-acids in serum and urine samples was performed using the Amino Acids LC–MS/MS analysis Kit Jasem®. […] Equipment was controlled and data were analyzed using MassHunter Workstation (Agilent Technologies). The assay was validated for selectivity, specificity, linearity and limit of quantification, accuracy and precision, matrix effects and recovery, and stability.

In another data set the test system is Ctns KO mice kidneys. As to the kind of experiment: Kidney cystine content in Ctns KO mice. The conditions noted are these: for mean kidney cystine at 8 months-of-age: Ctns KO female mice, diet from 6-to-8 months-of-age; for kidney cystine as percentage of mean control diet, pooled for 8 and 12 months-of-age: 2 and 6 months of treatment. It counts as in vivo. The method, then:
For this pilot study, we selected tissue accumulation of cystine as a clear and measurable outcome to quantify long-term interference of dAAs with the endocytic supply of disulfide-rich plasma proteins to kidney PTCs.
Mice were euthanized by cabon dioxide (CO2) inhalation. Dissected tissues were homogenized in 10 mM N-ethylmaleimide. Protein fraction was obtained after precipitation in 10% 5-sulfosalicylic acid and centrifugation at 20,000g for 20 min at 4 °C. Protein pellet was resuspended in 100 mM NaOH and assayed by the Bio-Rad Protein Assay according to manufacturer’s instructions. Supernatant (50 μl) was mixed with 50 μL of the internal standard solution (Cystine d6) and vortexed for 5 s; then the mixture was extracted with 200 μl of acetonitrile, vortexed for at least 30 s, then centrifuged at 13,000 rpm for 9 min. Liquid chromatography and mass spectrometry analysis was performed by a UHPLC Agilent 1290 Infinity II 6470 (Agilent Technologies) equipped with an ESI-JET-STREAM source operating in the positive ion (ESI +) mode. Equipment was controlled and data were analyzed using MassHunter Workstation (Agilent Technologies). The separation column was InfinityLab Poroshell 120 HILIC 1.9 μm 100 × 2.1 mm (Agilent Technologies). Validation of the method was performed basing on the US Food and Drug Administration (FDA) guideline for industry bioanalytical method validation (FDA 2013) and European Medicines Agency (EMA) guideline (EMA 2011). The assay was validated for selectivity, specificity, linearity and limit of quantification, accuracy and precision, matrix effects and recovery, and stability.

For the next data set, the system named is megalin pathway. The conditions noted are these: mouse, in vivo.
The next data set relates to cystinotic rat model. As to the kind of experiment: 5x-L-lysine diet in cystinotic rat model (preliminary, not shown). It counts as in vivo. The note with it: preliminary results (not shown).
The subject of the next data set is megalin and cubilin. Details: method as in PMID 16508656. The conditions noted are these: rats, cited from earlier work.
The mark [4] stands for this setting: Ctns KO mice, daily urine collections.
Where [5] appears, read: female, C57BL/6, mouse, in vivo, 2 months.

Protocol for megalin pathway: After 24-h adaptation in metabolic cages, urine was collected during the following 24 h in presence of 0.1% sodium azide and 1x-protease inhibitors (Thermo Scientific). When in metabolic cages, mice had free access to tap water and food. Blood was collected 2 days before starting the treatments and entry into metabolic cages (baseline) and at the sacrifice to obtain serum. Body weight was recorded before entering the metabolic cages. Urine and serum analyses were performed by the veterinary laboratory Appialab Srl (Rome, Italy). Urinary levels of CC16 were measured by the Mouse Clara Cell Protein 16 kit 96 T #EKU03200 (Biomatik) according to manufacturer’s instructions. Serum levels of cystatin-C were measured by the Mouse/Rat Cystatin C Quantitative ELISA #MSCTC0 (R&D Systems). […] Creatinine clearance was normalized by mouse body weight.

As to `N=C(N)NCCC[C@H](N)C(=O)O` [5x-L-arginine, L-arginine], at porcine megalin [1], the IC50 worked out at 57 mM and the “SPR signal of amino-acid alone on megalin chip” value was “no signal was detected”. For the same compound, the “effect on megalin binding of lysozyme” value at porcine megalin [2] is “concentration-dependent decrease”. In addition, the “subcellular localization of megalin in PTCs” value in the data set with megalin is reported as “no relocation”. In data set [3], this compound registered a Urinary alanine of 712.5 ± 216.9 mM/M creatinine, a Urinary cystine of 146.6 ± 43.7 mM/M creatinine and a Urinary glycine of 963.7 ± 218.1 mM/M creatinine. The “urinary arginine concentration reached” value in data set [3] (setting [4]) is ~ 1 mM. The increase of cystinuria result in data set [3] (Ctns KO mice) is listed as “twofold”. In data set [3] (setting [5]), this compound had an increase of argininuria of 33 fold. In addition, the concentration at 2 months in data set [3] (female, C57BL/6, mouse, serum, oral, 7.6 g/kg/day, Ctns KO mice, read-out: serum arginine) came to 137 ± 35 µM. The “mean kidney cystine at 8 months-of-age” value in the data set with Ctns KO mice kidneys is reported as 90.0 ± 32.3 nmol hemi-cystine/mg kidney protein. Moreover, in the data set on Ctns KO mice kidneys (Ctns KO mice), the “kidney cystine as percentage of mean control diet, pooled for 8 and 12 months-of-age” value is “without reaching statistical significance”. Besides, in the data set on megalin pathway, the Urine microalbumin/creatinine turned out to be 0.2 ± 0.0 mg/g and the “increase of microalbuminuria vs control diet” value was “no detectable increase”.

In the case of `NCCCC[C@H](N)C(=O)O` [5x-L-lysine, L-lysine], at porcine megalin [1], the IC50 stood at 25 mM and the “SPR signal of amino-acid alone on megalin chip” value was “no signal was detected”. The “effect on megalin binding of lysozyme” value at porcine megalin [2] is on record as “concentration-dependent decrease”. Further, the “subcellular localization of megalin in PTCs” value in the data set on megalin is recorded as “no relocation”. In data set [3], this compound displayed a Urinary alanine of 639.6 ± 279.6 mM/M creatinine, a Urinary cystine of 504.5 ± 61.2 mM/M creatinine and a Urinary glycine of 881.0 ± 265.9 mM/M creatinine. Also, in data set [3] (setting [4]), the “urinary lysine concentration reached” value is reported as ~ 25 mM. In data set [3] (Ctns KO mice), this compound gave an increase of cystinuria of 8 fold. In data set [3] (setting [5]), this compound gave an increase of argininuria of 25 fold and an increase of lysinuria of 210 fold. The concentration at 2 months in data set [3] (female, C57BL/6, mouse, in vivo, 6.5 g/kg/day, Ctns KO mice, read-out: serum lysine) was found to be 581 ± 15.5 µM. The “mean kidney cystine at 8 months-of-age” value in the data set on Ctns KO mice kidneys was 83.6 ± 38.7 nmol hemi-cystine/mg kidney protein. In the data set on Ctns KO mice kidneys (Ctns KO mice), the “kidney cystine as percentage of mean control diet, pooled for 8 and 12 months-of-age” value is listed as “significantly lower than control”. Besides, the “cumulative decrease of kidney cystine accumulation” value with Ctns KO mice kidneys (Ctns KO mice, two-months treatment from 6-to-8 months of age) is on record as “~ twofold”. Also, in the data set with cystinotic rat model, the Fanconi syndrome result is given as “serious worsening” and the kidney cystine accumulation entry was “considerably decreased”. For the same compound, in the data set on megalin and cubilin (1-day gavage, 80 mmoles/kg), the tolerance entry is “well tolerated”. In the data set on megalin and cubilin (gavage for one day), the LMWPuria result is “prominent LMWPuria”. Moreover, the “localization of megalin and cubilin in PTCs” value with megalin and cubilin (gavage for one day, from base of brush border to brush border itself) is listed as “striking relocation”.

Values taken from article PMC10570359, “Dietary supplementation of cystinotic mice by lysine inhibits the megalin pathway and decreases kidney cystine content” (Scientific Reports, 2023).
